Reference: publication PMC5355235, “FLT3 activating mutations display differential sensitivity to multiple tyrosine kinase inhibitors” (Oncotarget, 2017)
Where a chain is given by its changes, count along the chain named.

Experiments:
wild-type FLT3 = molecular target: T1, wild-type FLT3 (Homo sapiens, UniProt P36888); assay: Wild-type FLT3 autophosphorylation in FL-stimulated BaF3/WT-FLT3 cells; format: cell-based; conditions: TKI 1 h, then 25 ng/ml human FLT3 ligand 15 min
T1 construct: expressed in transfected cells; host or cells: BaF3
T1 sequence (P36888 27-993): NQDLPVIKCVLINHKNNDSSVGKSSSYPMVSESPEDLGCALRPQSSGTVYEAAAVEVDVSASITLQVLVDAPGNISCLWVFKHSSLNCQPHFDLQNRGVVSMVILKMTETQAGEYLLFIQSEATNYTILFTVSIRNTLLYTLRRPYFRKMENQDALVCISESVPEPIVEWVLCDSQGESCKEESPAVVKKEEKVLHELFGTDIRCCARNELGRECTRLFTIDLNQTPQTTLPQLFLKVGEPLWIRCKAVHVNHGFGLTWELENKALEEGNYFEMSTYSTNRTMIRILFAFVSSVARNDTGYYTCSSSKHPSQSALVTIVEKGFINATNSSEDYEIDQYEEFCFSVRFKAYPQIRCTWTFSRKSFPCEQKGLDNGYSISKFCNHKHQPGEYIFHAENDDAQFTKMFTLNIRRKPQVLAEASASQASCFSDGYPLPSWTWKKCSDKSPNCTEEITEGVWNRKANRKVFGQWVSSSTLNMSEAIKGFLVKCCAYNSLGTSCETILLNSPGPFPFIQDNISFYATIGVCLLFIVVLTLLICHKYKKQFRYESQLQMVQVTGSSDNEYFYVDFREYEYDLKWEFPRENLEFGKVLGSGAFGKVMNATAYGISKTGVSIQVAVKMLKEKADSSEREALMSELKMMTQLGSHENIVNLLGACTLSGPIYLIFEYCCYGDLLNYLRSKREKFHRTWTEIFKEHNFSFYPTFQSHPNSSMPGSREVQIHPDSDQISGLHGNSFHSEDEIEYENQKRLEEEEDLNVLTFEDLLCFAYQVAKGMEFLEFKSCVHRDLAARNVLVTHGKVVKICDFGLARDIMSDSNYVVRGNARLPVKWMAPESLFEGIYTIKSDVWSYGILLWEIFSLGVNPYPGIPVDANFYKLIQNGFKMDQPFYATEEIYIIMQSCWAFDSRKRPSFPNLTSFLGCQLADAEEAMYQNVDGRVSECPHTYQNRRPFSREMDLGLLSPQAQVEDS
Method: Figure 3 Inhibition of wild-type FLT3 signaling pathways by FLT3 TKI BaF3/WT-FLT3 cells were treated with FLT3 TKI at the indicated concentrations for 1 h at 37°C then stimulated with 25ng/ml of human FLT3 ligand for 15 minutes, followed by immunoprecipitation for FLT3, SDS-PAGE and WB for FLT3 and phospho-FLT3 (PFLT3).
Activated FLT3 expression was measured by performing immunoprecipitation, SDS-PAGE and Western blotting as previously described. […] Specifically, 10^7 cells were washed in medium and treated with inhibitor for 1 h followed by stimulation with 25 ng/ml of FLT3 ligand for 15 minutes where indicated. Cells were washed twice with ice-cold PBS and lysed in 300 µl of NP-40 lysis buffer (150 mM NaCl, 20 mM TrisHCl (pH7.4), 10% glycerol, 1% NP-40, 10 mM EDTA, 100 mM NaF) with 2 mM Na3VO4 and protease inhibitors (Complete Tablets, Roche, Mannheim, Germany) at 4°C for 30 m. Cell lysate was harvested by centrifugation at 13,000 × g for 30 m at 4°C. FLT3 S-18 antibody was incubated with 500 µg lysate overnight at 4°C followed by immunoprecipitation with protein A-agarose beads for 2 h. Beads were washed once in Tris buffered saline with 1% Tween-20 (TBST) and twice in TBS. […] Proteins were transferred to a polyvinyl diflouride (PVDF) membrane (Millipore, Bedford, MA, USA) and detected by 4G10 phosphotyrosine antibody and anti-FLT3 S-18 antibody. […]

FLT3 D835Y = molecular target: T2, FLT3 D835Y (Homo sapiens, UniProt P36888, D835Y); assay: FLT3 autophosphorylation, immunoprecipitation/Western blot, D835Y; format: cell-based; conditions: FLT3 D835Y cells, highest concentrations tested, 1 h
T2 construct: expressed in transfected cells; host or cells: BaF3
T2 sequence (P36888 27-993 D835Y): T1 sequence (P36888 27-993) with D809Y
Method: Activated FLT3 expression was measured by performing immunoprecipitation, SDS-PAGE and Western blotting as previously described. Specifically, 10^7 cells were washed in medium and treated with inhibitor for 1 h followed by stimulation with 25 ng/ml of FLT3 ligand for 15 minutes where indicated. Cells were washed twice with ice-cold PBS and lysed in 300 µl of NP-40 lysis buffer (150 mM NaCl, 20 mM TrisHCl (pH7.4), 10% glycerol, 1% NP-40, 10 mM EDTA, 100 mM NaF) with 2 mM Na3VO4 and protease inhibitors (Complete Tablets, Roche, Mannheim, Germany) at 4°C for 30 m. Cell lysate was harvested by centrifugation at 13,000 × g for 30 m at 4°C. FLT3 S-18 antibody was incubated with 500 µg lysate overnight at 4°C followed by immunoprecipitation with protein A-agarose beads for 2 h. Beads were washed once in Tris buffered saline with 1% Tween-20 (TBST) and twice in TBS. Samples were boiled in sodium dodecyl sulfate (SDS) sample buffer prior to separating in a 8% SDS-polyacrylamide gel (SDS-PAGE). Proteins were transferred to a polyvinyl diflouride (PVDF) membrane (Millipore, Bedford, MA, USA) and detected by 4G10 phosphotyrosine antibody and anti-FLT3 S-18 antibody. FLT3 was visualized using the Odyssey Infra Red Imaging System from Li-Cor (Lincoln, NE, USA) using AlexaFluor 680 goat anti-mouse and AlexaFluor 800 goat anti-rabbit antibodies. […]

- IC50 (wild-type FLT3): 500 nM
- Inhibition of FLT3 autophosphorylation (FLT3 D835Y): markedly reduced or absent inhibition
Structure (SMILES): Cc1cc2ncc(-c3ccccc3)nc2cc1C [AG1295]
